Assay results: patent US20020106347A1, “Cytokines and their use in treatment and/or prophylaxis of breast cancer” (priority 1995, published 2002)
“Also recorded” adds a separate entry of the source.

Columns and labels:
MDA-MB-231 cells = assay: Cell morphology after exposure to OSM; format: cell-based, human; conditions: MDA-MB-231 exposed to OSM
Description: FIG. 15 is a photographic representation showing cell morphology after exposure to OSM. MCF-7 cells from control cultures (Panel A) and appearance of cells after culture for 14 days in OSM (10 ng/ml) (Panel B). MDA-MB-231 cells from control cultures (Panel C) and appearance of cells after culture for 7 days in OSM (Panel D).
The action of IL-6, LIF, OSM CNTF and IL-11 was examined on 4 breast cancer cell lines grown in monolayer culture. Striking changes in the morphology of cells were observed. FIG. 15 compares morphology of untreated cells with cells exposed to OSM. […] This was associated with the appearance of decreased intercellular adhesion or cellular contraction. These changes were quite marked by day 14.

MCF-7 cells = assay: Proliferation of MCF-7 cells in monolayer (liquid) culture, viable cell count; format: cell-based, human; conditions: for mean inhibition of cell proliferation: MCF-7, 7 days exposure, LIF 1000 U/ml, IL-6 100 ng/ml, OSM 10 ng/ml, IL-11 100 ng/ml, vs untreated control; for effect on cell proliferation (in words): MCF-7 / MCF-7M, up to 1 week culture
Description: FIGS. 2A, B and C are graphical representations of MCF-7M cells in liquid culture. 10^4 MCF-7M cells were cultured in 500 μl RPMI/10% bovine calf serum (BCS) (v/v) containing the indicated concentration of each of the growth factors (OSM or LIF). After 7 days culture viable cells were counted using a hemacytometer. Cell numbers reported here are the result of one experiment, each performed in triplicate.
FIG. 7 is a graphical representation showing inhibition of proliferation of MCF-7 cells by Oncostatin M (OSM). 10^4 MCF-7 cells were cultured in 500 μl RPMI/10% (v/v) BCS with the indicated concentrations of OSM. At 2, 4 and 6 days, viable cells were counted using a hemacytometer. Results are from 3 experiments, each performed in triplicate.
FIG. 8 is a graphical representation showing that MCF-7 cells are inhibited in a dose-dependent fashion by Oncostatin M (OSM). 10^4 MCF-7 cells were cultured in 500 μl RPMI/10% (v/v) BCS with the indicated concentrations of OSM. After 7 days viable cells were counted, and cell number expressed as a percentage of the corresponding untreated control value.
FIG. 16 is a graphical representation showing inhibition of MCF-7 cells after 7 days in suspension culture. 10^4MCF-7 cells were cultured in 500 μl RPMI/10% (v/v) BCS with the indicated growth factor. After 7 days viable cells were counted using a hemacytometer. Results are from 9 experiments, each performed in triplicate.
(§1) Proliferation of the cell lines was measured in monolayer culture in 24 well Costar cluster plates. Cells were plated at an initial density of 10 000 cells/ml and cultured in 500 μl RPMI-1640 supplemented with 10% (v/v) (v/v) BCS and with each growth factor as indicated (LIF, 1000 U/ml; IL-6, 100 ng/ml; OSM, 10 ng/ml; CNTF, 10 ng/ml; IL-11, 100 ng/ml). These concentrations are maximally active in other systems (Nandurkar et al., 1996; Hilton et al., 1994; Zhang et al., 1994; Tanigawa et al., 1995). After 7 or 10 days at 37° C. in a fully humidified atmosphere containing 10% (v/v) CO2 in air, cells were trypsinised and counted using a haemocytometer and an inverted microscope. Cell viability was assessed using eosin exclusion. Results were expressed as a percentage of the corresponding untreated control value for that experiment.

MCF-7 cell line = assay: Receptor binding of radioiodinated ligand to MCF-7 cells, Scatchard analysis; design: species or system human; conditions: for Kd: MCF-7, Scatchard analysis, read-out: dissociation constant; for specific binding(cpm)/10^6 cells: MCF-7M, 125I-ligand, room temperature 60 min
Description: FIG. 20 is a graphical representation showing Scatchard analyses of the saturation isotherms of LIF and OSM binding to breast cancer cell lines. Cells were incubated with various concentrations of labelled or unlabelled ligand in the presence or absence of a 10-100 fold excess of unlabelled ligand. After 18 hr on ice, bound and free ligand were separated by centrifugation through bovine calf serum. Bound and free ^125I-ligand was quantitated in a γ-counter and the data was depicted as a Scatchard transformation. Data was normalised for cell number and is shown as binding to 10^6 cells. A) Saturation isotherm of LIF binding to the MCF-7 cell line. […] B) Saturation isotherm of OSM binding to the MDA-MB-231 cell line.
Receptor binding assays were performed using radioiodinated LIF (^125I-LIF) and OSM (^125I-OSM). The radioiodination of LIF and OSM and binding assays were essentially performed as previously described (Hilton et al., 1991; Hilton and Nicola, 1992). Briefly, 50 μl aliquots containing 1×10^7 cells, suspended in RPMI-1640 medium containing 10% (v/v) BCS, were placed in Falcon tubes with 40 μl of the respective radioiodinated ligand at 1×10^5 cpm per 40 μl, with or without greater than a 40-fold excess of unlabelled ligand. Incubation was carried out at room temperature for 60 min and cells were resuspended and layered over 180 μl of (v/v) BCS. Cell associated and free radioiodinated ligand were separated by centrifugation. The pellet and supernatant were subsequently counted in a γ-counter. Specific binding was estimated by subtraction of non specific binding from binding with ^125I-ligand (total binding). Number of cell surface receptors and dissociation constant were calculated by Scatchard analysis.

[1] = test system: four breast cancer cell lines; assay: Proliferation of four breast cancer cell lines in monolayer culture (summary); format: cell-based, human
Description: as §1
Experiments were performed to determine whether these morphological changes were associated with alterations in cell growth. The proliferation of four breast cancer cell lines was examined in monolayer cultures containing either IL-6, LIF, OSM, CNTF or IL-11.

Substance | cell morphology (in words) (MDA-MB-231 cells) | inhibition of cell proliferation, up to (maximum observed) (MCF-7 cells; MCF-7, 7 days exposure to OSM, 9 experiments) | mean inhibition of cell proliferation (MCF-7 cells) | effect on cell proliferation (in words) (MCF-7 cells) | Kd (MCF-7 cell line) | specific binding(cpm)/10^6 cells (MCF-7 cell line) | cell lines with significant inhibition of cellular proliferation [1]
oncostatin M [OSM] | Transformation to a fibroblastic phenotype | up to 94% | 85% | inhibition of cell proliferation; also recorded: inhibition of cellular proliferation | 2 nM | 1250 +/− 90 cpm | ¾
Leukemia Inhibitory Factor [LIF] | – | – | 37% | induced inhibition | 0.0146 nM | 350 +/− 100 cpm | ¼
